Paper PMC9122897, “SHR1032, a novel STING agonist, stimulates anti-tumor immunity and directly induces AML apoptosis” (Scientific Reports, 2022)

Tests used:
[1] = test system: mouse RAW164.7 macrophage cells; assay: Western blot of TBK1 phosphorylation; type: cell-based; conditions: 10 µM SHR1032 vs 40 µM ADU-S100
Protocol: (§1) Figure 2 SHR1032 specifically and potently activates STING signaling pathway. IRF luciferase reporter assays in (a) THP1-STING-R232, THP1-STING-H232, THP1-STING-HAQ, and THP1-STING-KO cells. Cells were stimulated for 24 h with the indicated STING compounds and assessed for luciferase activity. IFNβ production and activation of cGAS-STING signaling pathway in (b) human THP1-STING-R232, human PBMCs from a donor homozygous for the R232 variant, cynomolgus PBMC, and mouse RAW164.7 macrophage cells were treated with STING agonists for 5 h. IFNβ in media was quantified by human or mouse ELISA kits respectively. (c) THP1-STING-R232 cells and mouse RAW164.7 macrophage cells were stimulated with 40 µM of ADU-S100 or 10 µM of SHR1032 for the indicated time points. The amount of pTBK1, total TBK1, STING and α-tubulin was measured by western blotting.
(§2) THP1 reporter cells were treated for 24 h with a total of 100 k cells and 150 ul media in each well a 96-well plate. […] Luminescence signal was measured using Tecan infinite M1000. EC50 values were calculated using non-linear regression analysis of GraphPad Prism. Cell growth was monitored by CellTiter-Glo Luminescent Cell Viability Assay (Promega) per manufacture’s protocol. GI50 values were calculated using non-linear regression analysis of GraphPad Prism. […]

THP1-STING-R232 cells = assay: Western blot of TBK1 phosphorylation; type: cell-based, human; conditions: 10 µM SHR1032 vs 40 µM ADU-S100
Protocol: as §1, §2

cynomolgus PBMC = assay: IFNβ ELISA; type: cell-based, cynomolgus monkey; conditions: 5 h, vs ADU-S100
Protocol: as §1
Human and Cynomolgous PBMC’s were thawed and spun down in Lymphocyte media (ZENBIO) and resuspended in media to 1.5 x 10^6 cells/ml density. […] Human and monkey IFN-β protein concentration was measured using human IFN-β Quantikine ELISA Kits (R&D Systems) per manufacture’s protocol. Mouse IFN-β was measured using mouse IFN-β Quantikine ELISA Kits (R&D Systems) per manufacture’s protocol. Mouse TNFα, IFN-β and IL-6 in the tumor lysates and plasma was measured by Quantikine ELISA Kits (R&D Systems) per manufacture’s protocol.

MV4-11 cells [2] = assay: Annexin V staining by flow cytometry; type: cell-based, human; conditions: MV4-11, 16 h; compared to cytarabine
Protocol: (§3) Figure 5 Cell apoptosis induced by SHR1032 in AML cell lines is independent of type I interferon. (a–d) RNA-Seq analysis of THP1-STING-R232, THP1-STING-KO and MV4-11 AML cells treated with 1 µM of SHR1032 for 4 h. […] (d) ANNEXIN V staining analysis with flow cytometry in MV4-11, MOLM-16, THP1-STING-WT and THP1-STING-KO cells. (e) Cell viability analysis by CellTiter Glo in THP1-IRFAR2-WT or -KO cells.
(§4) Cells were incubated with compounds or DMSO for 16 h in a 6-well plate (0.5 × 10^6 cells/well in 2 ml of media). After incubation, cells were collected and washed once in stain buffer (BD Biosciences). Samples were stained with FITC_Annexin V (BioLegend) for 15 min at room temperature. Then the cells were washed twice and resuspended in 200 µl stain buffer, and analyzed with Guava EasyCyte (Millipore).

THP1-STING-WT cells = assay: Annexin V staining by flow cytometry; type: cell-based, human; conditions: 16 h, compared to cytarabine
Protocol: as §3, §4

MOLM-16 cells [3] = assay: Annexin V staining by flow cytometry; type: cell-based, human; conditions: MOLM-16, 16 h; compared to cytarabine
Protocol: as §3, §4

THP1-STING-KO cells = assay: Annexin V staining by flow cytometry; type: cell-based, human; conditions: 16 h
Protocol: as §3, §4

MV4-11 cells [4] = assay: IFNβ ELISA; type: cell-based, human; conditions: MV4-11, 5 hrs, compared to THP1 cells
Protocol: (§5) Human and Cynomolgous PBMC’s were thawed and spun down in Lymphocyte media (ZENBIO) and resuspended in media to 1.5 x 10^6 cells/ml density. Mouse RAW 264.7 cells were detached from the flask and resuspended in media to 1.5 x 10^6 cells/ml density. Then, 100 µl of media containing the cells was added to each well of a 96-well plate containing compound in 50 µl of media. Plates were incubated for 5 h at 37 °C and supernatant was collected for ELISA analysis. Human and monkey IFN-β protein concentration was measured using human IFN-β Quantikine ELISA Kits (R&D Systems) per manufacture’s protocol. Mouse IFN-β was measured using mouse IFN-β Quantikine ELISA Kits (R&D Systems) per manufacture’s protocol. Mouse TNFα, IFN-β and IL-6 in the tumor lysates and plasma was measured by Quantikine ELISA Kits (R&D Systems) per manufacture’s protocol.
(§6) Figure S2. IFNβ measurement in MV4-11, MOLM-16 and THP1-STING-R232 cells treated with SHR1032 for 5 hrs.

MOLM-16 cells [5] = assay: IFNβ ELISA; type: cell-based, human; conditions: MOLM-16, 5 hrs, compared to THP1 cells
Protocol: as §5, §6

CCn1nc(C)cc1C(=O)Nc1nc2cc(C(N)=O)cc(OC)c2n1CCC[C@H]1COc2cc(C(N)=O)cc3nc(NC(=O)c4cc(C)nn4CC)n1c23 [SHR1032]
TBK1 phosphorylation [1]: lower | TBK1 phosphorylation (THP1-STING-R232 cells): higher level of TBK1 phosphorylation than ADU-S100 | monkey IFNβ production (cynomolgus PBMC): lower than that with that of ADU-S100, but still detectable | apoptosis (Annexin V) (MV4-11 cells [2]): much higher level of apoptosis | apoptosis (Annexin V) (THP1-STING-WT cells): comparable level of apoptosis | apoptosis (Annexin V) (MOLM-16 cells [3]): much higher level of apoptosis | apoptosis (Annexin V) (THP1-STING-KO cells): no effect | IFNβ production (MV4-11 cells [4]): produced IFNβ, but with a level much lower than that in THP1 cells | IFNβ production (MOLM-16 cells [5]): produced IFNβ, but with a level much lower than that in THP1 cells
